In this assay the target is T1, CCR2 (Homo sapiens, UniProt P41597).
T1 construct: host or cells: THP-1 cells
T1 sequence (P41597 1-360 isoform P41597-2): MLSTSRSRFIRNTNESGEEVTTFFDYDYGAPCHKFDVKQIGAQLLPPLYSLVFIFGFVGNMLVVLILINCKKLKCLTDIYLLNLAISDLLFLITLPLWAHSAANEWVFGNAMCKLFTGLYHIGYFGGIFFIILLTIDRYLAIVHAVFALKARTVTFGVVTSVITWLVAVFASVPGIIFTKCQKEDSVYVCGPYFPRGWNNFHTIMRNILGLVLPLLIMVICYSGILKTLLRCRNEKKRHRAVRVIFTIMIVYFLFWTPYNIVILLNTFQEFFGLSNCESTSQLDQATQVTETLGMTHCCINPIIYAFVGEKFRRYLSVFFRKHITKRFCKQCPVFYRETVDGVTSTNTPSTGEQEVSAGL
The experiment in a line: MCP-1 Receptor Binding Assay in THP-1 Cells. Conditions: for IC50: THP-1 cells, 0.5 nM 125I labeled MCP-1, 2 hours at 30° C., read-out: Inhibition of MCP-1 Binding IC50; for inhibition at 25 µM: test concentration of 25 μM, given where an IC50 value was not obtained, read-out: Inhibition of MCP-1 Binding, percent inhibition. The protocol:
THP-1 cells were obtained from American Type Culture Collection (Manassas, Va., USA). The THP-1 cells were grown in RPMI-1640 supplemented with 10% fetal bovine serum in a humidified 5% CO2 atmosphere at 37° C. The cell density was maintained […].
THP-1 cells were incubated with 0.5 nM ^125, labeled MCP-1 (Perkin-Elmer Life Sciences, Inc. Boston, Mass.) in the presence of varying concentrations of either unlabeled MCP-1 (R & D Systems, Minneapolis, Minn.) or test compound for 2 hours at 30° C. in a 96 well plate. Cells were then harvested onto a filter plate, dried, and 20 μL of Microscint 20 was added to each well. Plates were counted in a TopCount NXT, Microplate Scintillation & Luminescence Counter (Perkin-Elmer Life Sciences, Inc. Boston, Mass.). Blank values (buffer only) were subtracted from all values and drug treated values were compared to vehicle treated values. 1 μM cold MCP-1 was used for nonspecific binding.
Table 1 lists IC50 values for inhibition of MCP-1 binding to CCR2 obtained for test compounds of the invention.

As usually defined, the IC50 is the concentration at which inhibition is half-maximal. For the molecule `O=C(C(=O)N1CCC(c2ccc(Cl)cc2)CC1)C1CCN(C(=O)C=Cc2ccc(Cl)c(Cl)c2)CC1` [Compound 2, 1-[4-(4-chloro-phenyl)-piperidin-1-yl]-2-{1-[3-(3,4-dichloro-phenyl)-acryloyl]-piperidin-4-yl}-ethane-1,2-dione], the IC50 came to 4.4 µM.

For the molecule `O=C(/C=C/c1ccc(Cl)c(Cl)c1)N1CCC(C(O)C(=O)N2CCC(c3ccc(Cl)cc3)CC2)CC1` (stereo not drawn) [Compound 3], the IC50 amounted to 3.4 µM.

On to `O=C(c1cc(F)c(F)c(F)c1)N1CCC(C(O)CN2CCC(c3c[nH]c4ccccc34)CC2)CC1` (stereo not drawn) [Compound 8, (4-{1-hydroxy-2-[4-(1H-indol-3-yl)-piperidin-1-yl]-ethyl}-piperidin-1-yl)-(3,4,5-trifluoro-phenyl)-methanone], for which the IC50 is 6.4 µM.

For the molecule `O=C(CN1CCC(c2c[nH]c3ncccc23)CC1)C1CCN(C(=O)/C=C/c2cc(F)c(F)c(F)c2)CC1` [Compound 17, 1-(4-{2-[4-(1H-pyrrolo[2,3-b]pyridin-3-yl)-piperidin-1-yl]-acetyl}-piperidin-1-yl)-3-(3,4,5-trifluoro-phenyl)-propenone], the IC50 was determined as 9.4 µM.

`Cc1cccc(/C=C/C(=O)N2CCC(C(O)CN3CCC(c4cc[nH]n4)CC3)CC2)c1` (stereo not drawn) [Compound 33]: the concentration for half-maximal inhibition (IC50) was found to be 1.4 µM.

As to `O=C(/C=C/c1cc(F)c(F)c(F)c1)N1CCC(C(O)CN2CCC(c3cc[nH]n3)CC2)CC1` (stereo not drawn) [Compound 35], the 50% inhibitory concentration (IC50) was 1.2 µM.

`O=C(Nc1ccc(Cl)c(Cl)c1)N1CCC(C(O)CN2CCC(c3cc[nH]n3)CC2)CC1` (stereo not drawn) [Compound 36, 4-{1-hydroxy-2-[4-(1H-pyrazol-3-yl)-piperidin-1-yl]-ethyl}-piperidine-1-carboxylic acid (3,4-dichloro-phenyl)-amide]: the half-inhibitory concentration (IC50) came to 1.1 µM.

Turning to `O=C(Nc1ccc(F)c(F)c1)N1CCC(C(O)CN2CCC(c3cc[nH]n3)CC2)CC1` (stereo not drawn) [Compound 37, 4-{1-hydroxy-2-[4-(1H-pyrazol-3-yl)-piperidin-1-yl]-ethyl}-piperidine-1-carboxylic acid (3,4-difluoro-phenyl)-amide], the IC50 was found to be 8.6 µM.

For `CCOC(=O)C(CN1CCC(c2ccc(OC)cc2)CC1)C1CCN(C(=O)C=Cc2cc(F)c(F)c(F)c2)CC1` (stereo not drawn) [Compound 38, 3-[4-(4-methoxy-phenyl)-piperidin-1-yl]-2-{1-[3-(3,4,5-trifluoro-phenyl)-acryloyl]-piperidin-4-yl}-propionic acid ethyl ester], the 50% inhibitory concentration (IC50) stood at 4.7 µM.

In general, inhibition refers to how much of the control response was suppressed. Turning to `COc1ccc(C2CCN(CC(C(=O)O)C3CCN(C(=O)C=Cc4cc(F)c(F)c(F)c4)CC3)CC2)cc1` (stereo not drawn) [Compound 39, 3-[4-(4-methoxy-phenyl)-piperidin-1-yl]-2-{1-[3-(3,4,5-trifluoro-phenyl)-acryloyl]-piperidin-4-yl}-propionic acid], the inhibition at 25 µM amounted to 52%.

Turning to `O=C(/C=C/c1cc(F)cc(F)c1)N1CCC(C(O)CN2CCC(c3nc4ccccc4o3)CC2)CC1` (stereo not drawn) [Compound 46], the IC50 amounted to 2.1 µM.

`Cc1cccc(/C=C/C(=O)N2CCC(C(O)CN3CCC(c4nc5ccccc5o4)CC3)CC2)c1` (stereo not drawn) [Compound 47]: the IC50 came out at 3.9 µM.

As for `CCOC(=O)C(CC1CCN(C(=O)C=Cc2cccc(C)c2)CC1)N1CCC(c2c[nH]c3ccccc23)CC1` (stereo not drawn) [Compound 48, 2-[4-(1H-indol-3-yl)-piperidin-1-yl]-3-[1-(3-m-tolyl-acryloyl)-piperidin-4-yl]-propionic acid ethyl ester], the inhibition at 25 µM worked out at 48%.

For the molecule `CCOC(=O)C(CC1CCN(C(=O)C=Cc2ccc(Cl)c(Cl)c2)CC1)N1CCC(c2c[nH]c3ccccc23)CC1` (stereo not drawn) [Compound 49, 3-{1-[3-(3,4-dichloro-phenyl)-acryloyl]-piperidin-4-yl}-2-[4-(1H-indol-3-yl)-piperidin-1-yl]-propionic acid ethyl ester], the inhibition at 25 µM came to 40%.

As for `CCOC(=O)C(CC1CCN(C(=O)C=Cc2cc(F)c(F)c(F)c2)CC1)N1CCC(c2c[nH]c3ccccc23)CC1` (stereo not drawn) [Compound 50, 2-[4-(1H-indol-3-yl)-piperidin-1-yl]-3-{1-[3-(3,4,5-trifluoro-phenyl)-acryloyl]-piperidin-4-yl}-propionic acid ethyl ester], the inhibition at 25 µM stood at 44%.

The values are drawn from patent publication US20070197590A1, “SUBSTITUTED DIPIPERIDINE CCR2 ANTAGONISTS” (priority 2006, published 2007).
